# Test results published in patent US20240218022A1, “ANTI-VISTA MACROCYCLIC PEPTIDES AND COMPOSITIONS” (BRISTOL-MYERS SQUIBB COMPANY, priority 2022, published 2024).
# Starred links: 1 amine or outer side, 2 acyl side, 3 side chain; linkers in the order of their positions; H or OH if unused. Positions of bridges follow the written chain, without caps; N, C: chain ends. Non-standard residues stand in square brackets, D forms with d. Residues, ends and D or L forms follow the SMILES beside them. ξ: configuration not given here. βAsp = O=C(O)[C@H](CC(=O)[*:2])N[*:1]; NMeThr(3ξ) = CN[C@H](C(=O)O)C(C)O; Ahp(2) = CCCCC[C@H](N)C(=O)O; Tle = CC(C)(C)[C@H](N)C(=O)O; NMeV = CN[C@H](C(=O)O)C(C)C; NMeS = CN[C@@H](CO)C(=O)O; NHexGly = CCCCCCNCC(=O)O; Aun = NCCCCCCCCCCC(=O)O; AEEA = NCCOCCOCC(=O)O
# Target: T1, mouse VISTA (mVISTA) (Mus musculus, UniProt Q9D659)
# T1 construct: expressed in transfected cells; host or cells: Human embryonic kidney 293T cells
# T1 sequence (Q9D659 33-308): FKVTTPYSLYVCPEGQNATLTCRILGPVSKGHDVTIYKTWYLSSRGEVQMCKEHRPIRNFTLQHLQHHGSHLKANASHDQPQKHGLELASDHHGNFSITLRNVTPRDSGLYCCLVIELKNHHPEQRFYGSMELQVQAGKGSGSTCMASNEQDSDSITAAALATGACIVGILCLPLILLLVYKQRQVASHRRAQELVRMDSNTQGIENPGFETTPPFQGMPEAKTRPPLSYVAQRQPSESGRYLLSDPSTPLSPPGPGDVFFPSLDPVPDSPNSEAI
# Experiment: Cell-Based Binding High-Content Assay For mVISTA (HC CBA mVISTA)
# Details: cell-based binding high-content assay, mVISTA; read-out: HC CBA miPr ISTA IC50
# Method in brief: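 Competition of compound with a biotinylated peptide (final 2 nM, 30 min at RT) for binding to mVISTA on 293T cells, run under no-wash or wash (1 h compound preincubation then removal) formats. Readout by Alexa 647–streptavidin imaging on a high-content platform; four-parameter logistic fit gave IC50.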
smiles,measurement,value
CCCCCCN1CC(=O)N[C@@H](Cc2ccc(O)cc2)C(=O)N[C@@H](CC(C)C)C(=O)N[C@@H](CC(N)=O)C(=O)N[C@@H](CCCNC(=N)N)C(=O)N(C)[C@@H](CO)C(=O)N[C@@H](CCCCC)C(=O)N2CCC[C@H]2C(=O)N[C@@H](C(C)(C)C)C(=O)N[C@@H](CC(=O)O)C(=O)N[C@H](C(=O)N[C@@H](CC(=O)NCCOCCOCC(=O)N[C@@H](CC(=O)O)C(=O)NCCOCCOCC(=O)NCCCCCCCCCCC(=O)O)C(=O)O)CSCC(=O)N[C@@H](Cc2ccccc2)C(=O)N[C@@H](Cc2c[nH]c3ccccc23)C(=O)N[C@@H](CC(=O)O)C1=O [compound 2034] ({CH2CO}-FWD[NHexGly]YLNR[NMeS][Ahp(2)]P[Tle]DC[βAsp][AEEA]D[AEEA][Aun]-OH; thioether N-14),IC50,43.5 nM
CCCCCCN1CC(=O)N[C@@H](Cc2ccc(O)cc2)C(=O)N[C@@H](CC(C)C)C(=O)N[C@@H](CC(N)=O)C(=O)N[C@@H](CCCNC(=N)N)C(=O)N(C)[C@@H](CO)C(=O)N[C@@H](CCCCC)C(=O)N2CCC[C@H]2C(=O)N[C@@H](C(C)(C)C)C(=O)N[C@@H](CC(=O)O)C(=O)N[C@H](C(=O)N[C@@H](CC(=O)NCCOCCOCC(=O)N[C@@H](CC(=O)O)C(=O)NCCOCCOCC(=O)NCCCCCCCCCCC(=O)O)C(=O)O)CSCC(=O)N[C@@H](Cc2ccccc2)C(=O)N[C@@H](Cc2ccc(O)cc2)C(=O)N[C@@H](CC(=O)O)C1=O [compound 2035] ({CH2CO}-FYD[NHexGly]YLNR[NMeS][Ahp(2)]P[Tle]DC[βAsp][AEEA]D[AEEA][Aun]-OH; thioether N-14),IC50,37.1 nM
CCCCCCN1CC(=O)N[C@@H](Cc2ccc(O)cc2)C(=O)N[C@@H](CC(C)C)C(=O)N[C@@H](CC(N)=O)C(=O)N[C@@H](CCCNC(=N)N)C(=O)N(C)[C@@H](C(C)O)C(=O)N[C@@H](CCCCC)C(=O)N2CCC[C@H]2C(=O)N[C@@H](C(C)(C)C)C(=O)N[C@@H](CO)C(=O)N[C@H](C(=O)N[C@@H](CC(=O)NCCOCCOCC(=O)N[C@@H](CC(=O)O)C(=O)NCCOCCOCC(=O)NCCCCCCCCCCC(=O)O)C(=O)O)CSCC(=O)N[C@@H](Cc2ccccc2)C(=O)N[C@@H](Cc2ccc(O)cc2)C(=O)N[C@@H](CC(=O)O)C1=O (some centres unmarked) [compound 2036] ({CH2CO}-FYD[NHexGly]YLNR[NMeThr(3ξ)][Ahp(2)]P[Tle]SC[βAsp][AEEA]D[AEEA][Aun]-OH; thioether N-14),IC50,49 nM
CCCCCCN1CC(=O)N[C@@H](Cc2ccc(O)cc2)C(=O)N[C@@H](CC(C)C)C(=O)N[C@@H](CC(N)=O)C(=O)N[C@@H](CCCNC(=N)N)C(=O)N(C)[C@@H](C(C)C)C(=O)N[C@@H](CCCCC)C(=O)N2CCC[C@H]2C(=O)N[C@@H](C(C)(C)C)C(=O)N[C@@H](CC(=O)O)C(=O)N[C@H](C(=O)N[C@@H](CC(=O)NCCOCCOCC(=O)N[C@@H](CC(=O)O)C(=O)NCCOCCOCC(=O)NCCCCCCCCCCC(=O)O)C(=O)O)CSCC(=O)N[C@@H](Cc2ccccc2)C(=O)N[C@@H](Cc2ccc(O)cc2)C(=O)N[C@@H](CC(=O)O)C1=O [compound 2037] ({CH2CO}-FYD[NHexGly]YLNR[NMeV][Ahp(2)]P[Tle]DC[βAsp][AEEA]D[AEEA][Aun]-OH; thioether N-14),IC50,34.4 nM
CCCCCCN1CC(=O)N[C@@H](Cc2ccc(O)cc2)C(=O)N[C@@H](CC(C)C)C(=O)N[C@@H](CC(N)=O)C(=O)N[C@@H](CCCNC(=N)N)C(=O)N(C)[C@@H](C(C)C)C(=O)N[C@@H](CCCCC)C(=O)N2CCC[C@H]2C(=O)N[C@@H](C(C)(C)C)C(=O)N[C@@H](CO)C(=O)N[C@H](C(=O)N[C@@H](CC(=O)NCCOCCOCC(=O)N[C@@H](CC(=O)O)C(=O)NCCOCCOCC(=O)NCCCCCCCCCCC(=O)O)C(=O)O)CSCC(=O)N[C@@H](Cc2ccccc2)C(=O)N[C@@H](Cc2c[nH]c3ccccc23)C(=O)N[C@@H](CC(=O)O)C1=O [compound 2039] ({CH2CO}-FWD[NHexGly]YLNR[NMeV][Ahp(2)]P[Tle]SC[βAsp][AEEA]D[AEEA][Aun]-OH; thioether N-14),IC50,23.8 nM
